Assay results published in PubChem BioAssay AID248 (DTP/NCI, 2004).
Values joined by “and” are separate entries in the source; they are usually repeats but may differ in a detail not shown here. Equal entries are not always repeated. Inconclusive results and toxic doses are left out. No stated cut-off is given here; in the data, active means T/C of 150% or more; inactive means T/C below 125%.

Test system: L1210 leukemia ip in BDF1 mice, survival T/C
Test: NCI In Vivo Anticancer Drug Screen. Data for tumor model L1210 Leukemia (intraperitoneal) in B6D2F1 (BDF1) mice
Details: endpoint: mean survival time, higher = longer survival
Summary of the method: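 Ratio derived from survival: compound-dosed mice over vehicle-dosed mice, all bearing a transplantable tumor.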

[1] = dose: 50.0 mg/kg/injection, schedule: Q01DX001 (ip), vehicle: saline
[2] = dose: 100.0 mg/kg/injection, schedule: Q01DX001 (ip), vehicle: saline
[3] = dose: 200.0 mg/kg/injection, schedule: Q01DX001 (ip), vehicle: saline
[4] = dose: 400.0 mg/kg/injection, schedule: Q01DX001 (ip), vehicle: saline
[5] = dose: 100.0 mg/kg/injection, schedule: Q01DX001 (ip), vehicle: Klucel (hydroxypropylcellulose) (HPC)
[6] = dose: 200.0 mg/kg/injection, schedule: Q01DX001 (ip), vehicle: Klucel (hydroxypropylcellulose) (HPC)
[7] = dose: 400.0 mg/kg/injection, schedule: Q01DX001 (ip), vehicle: Klucel (hydroxypropylcellulose) (HPC)
[8] = dose: 300.0 mg/kg/injection, schedule: Q01DX001 (ip), vehicle: saline
[9] = dose: 100.0 mg/kg/injection, schedule: Q04DX003 (ip), vehicle: Klucel (hydroxypropylcellulose) (HPC)
[10] = dose: 200.0 mg/kg/injection, schedule: Q04DX003 (ip), vehicle: Klucel (hydroxypropylcellulose) (HPC)
[11] = dose: 400.0 mg/kg/injection, schedule: Q04DX003 (ip), vehicle: Klucel (hydroxypropylcellulose) (HPC)
[12] = dose: 200.0 mg/kg/injection, schedule: Q04DX002 (ip), vehicle: Klucel (hydroxypropylcellulose) (HPC)
[13] = dose: 50.0 mg/kg/injection, schedule: Q01DX001 (ip), vehicle: carboxymethylcellulose (CMC)
[14] = dose: 100.0 mg/kg/injection, schedule: Q01DX001 (ip), vehicle: carboxymethylcellulose (CMC)
[15] = dose: 200.0 mg/kg/injection, schedule: Q01DX001 (ip), vehicle: carboxymethylcellulose (CMC)
[16] = dose: 400.0 mg/kg/injection, schedule: Q01DX001 (ip), vehicle: carboxymethylcellulose (CMC)
[17] = dose: 5.0 mg/kg/injection, schedule: Q01DX001 (ip), vehicle: saline
[18] = dose: 10.0 mg/kg/injection, schedule: Q01DX001 (ip), vehicle: saline
[19] = dose: 100.0 mg/kg/injection, schedule: Q04DX003 (ip), vehicle: saline with Tween-80
[20] = dose: 200.0 mg/kg/injection, schedule: Q04DX003 (ip), vehicle: saline with Tween-80
[21] = dose: 400.0 mg/kg/injection, schedule: Q04DX003 (ip), vehicle: saline with Tween-80
[22] = dose: 50.0 mg/kg/injection, schedule: Q04DX003 (ip), vehicle: Klucel (hydroxypropylcellulose) (HPC)
[23] = dose: 100.0 mg/kg/injection, schedule: Q01DX009 (ip), vehicle: Klucel (hydroxypropylcellulose) (HPC)
[24] = dose: 200.0 mg/kg/injection, schedule: Q01DX009 (ip), vehicle: Klucel (hydroxypropylcellulose) (HPC)

Measured: T/C

C=C(C)COC(=O)Nc1cccc(OC(=O)NC)c1
inactive: dose: 100.0 mg/kg/injection, schedule: Q01DX001 (ip), vehicle: saline with Tween-80 97 % of control | dose: 200.0 mg/kg/injection, schedule: Q01DX001 (ip), vehicle: saline with Tween-80 97 % of control | dose: 400.0 mg/kg/injection, schedule: Q01DX001 (ip), vehicle: saline with Tween-80 94 % of control

C(/CCC/C=N/Nc1ccccc1)=N\Nc1ccccc1
inactive: [1] 103 % of control | [2] 100 % of control | [3] 109 % of control | [4] 100 % of control

CCCCCCCCc1c(N)nc(N)[nH]c1=O
inactive: [5] 99 % of control | [6] 92 % of control | [7] 92 % of control

CCC(O)(CC)C(C)C
inactive: dose: 90.0 mg/kg/injection, schedule: Q01DX001 (ip), vehicle: saline 97 % of control | [2] 102 % of control | dose: 130.0 mg/kg/injection, schedule: Q01DX001 (ip), vehicle: saline 92 % of control | [8] 96 % of control | [4] 96 % of control

COc1cc(-c2nc3c4ccccc4c4ccccc4c3[nH]2)cc(OC)c1OC
inactive: [9] 94 % of control | [10] 96 % of control | [11] 105 % of control

Cc1nc(N)[nH]c(=O)c1CCCNS(=O)(=O)c1ccc(C(=O)O)cc1
inactive: [12] 88 % of control | dose: 400.0 mg/kg/injection, schedule: Q04DX002 (ip), vehicle: Klucel (hydroxypropylcellulose) (HPC) 112 % of control

O=S(c1cc(Cl)cc(Cl)c1O)c1cc(Cl)cc(Cl)c1O
inactive: [13] 95 % of control | [14] 98 % of control | [15] 101 % of control | [16] 114 % of control

CC(=O)N1Cc2c(N)ncnc2C1C (configuration not stated)
inactive: [2] 100 % of control | [3] 108 % of control | [4] 114 % of control

COc1ccc2nc3ccccc3c(NCCNCCO)c2c1
inactive: [17] 97 % of control | dose: 6.0 mg/kg/injection, schedule: Q01DX Z (ip), vehicle: carboxymethylcellulose (CMC) 98 % of control | dose: 9.0 mg/kg/injection, schedule: Q01DX Z (ip), vehicle: carboxymethylcellulose (CMC) 92 % of control | [18] 106 % of control | dose: 20.0 mg/kg/injection, schedule: Q01DX001 (ip), vehicle: saline 101 % of control | dose: 40.0 mg/kg/injection, schedule: Q01DX001 (ip), vehicle: saline 97 % of control | dose: 80.0 mg/kg/injection, schedule: Q01DX001 (ip), vehicle: saline 92 % of control

COc1cc(N)c2c(c1O)CN(C)CC2
inactive: dose: 75.0 mg/kg/injection, schedule: Q01DX001 (ip), vehicle: saline 95 % of control | dose: 150.0 mg/kg/injection, schedule: Q01DX001 (ip), vehicle: saline 100 % of control | [8] 86 % of control

Cc1cc2c(C)c3nc4ccccc4c3c(C)c2c[nH]1
inactive: [1] 107 % of control | [2] 98 % of control | [3] 101 % of control | [4] 107 % of control | dose: 800.0 mg/kg/injection, schedule: Q01DX001 (ip), vehicle: saline 110 % of control | dose: 1600.0 mg/kg/injection, schedule: Q01DX001 (ip), vehicle: saline 118 % of control

Cc1cc(=O)c2cc(N)ccc2[nH]1
inactive: dose: 100.0 mg/kg/injection, schedule: Q01DX009 (ip), vehicle: water 98 % of control | dose: 100.0 mg/kg/injection, schedule: Q04DX003 (ip), vehicle: water 107 % of control | dose: 200.0 mg/kg/injection, schedule: Q01DX009 (ip), vehicle: water 98 % of control | dose: 200.0 mg/kg/injection, schedule: Q04DX003 (ip), vehicle: water 113 % of control | dose: 400.0 mg/kg/injection, schedule: Q01DX009 (ip), vehicle: water 94 % of control | dose: 400.0 mg/kg/injection, schedule: Q04DX003 (ip), vehicle: water 116 % of control

CC(=O)c1ccc(Br)c2ccccc12
inactive: dose: 50.0 mg/kg/injection, schedule: Q04DX003 (ip), vehicle: saline with Tween-80 95 % of control | [19] 100 % of control | [20] 97 % of control | [21] 94 % of control

CC(=O)N(C1=C(N(CCO)CCO)C(=O)c2ccccc2C1=O)c1ccccc1
inactive: [19] 106 % of control | [20] 103 % of control | [21] 101 % of control

C/C=C/C=C/CC
inactive: [2] 109 % of control | [3] 102 % of control | [4] 109 % of control

CCOCCOC(=O)c1ccc(C#N)cc1
inactive: [2] 100 % of control | [3] 97 % of control | [4] 97 % of control

NNC(=O)C(Oc1ccccc1Cl)c1ccccc1 (configuration not stated)
inactive: [14] 105 % of control | [15] 97 % of control | [16] 105 % of control

COc1ccc(/C=C/c2ccc3ccccc3[n+]2C)cc1
inactive: dose: 12.5 mg/kg/injection, schedule: Q01DX009 (ip), vehicle: saline with Tween-80 94 % of control | dose: 25.0 mg/kg/injection, schedule: Q01DX009 (ip), vehicle: saline with Tween-80 115 % of control | dose: 25.0 mg/kg/injection, schedule: Q04DX003 (ip), vehicle: Klucel (hydroxypropylcellulose) (HPC) 101 % of control | dose: 50.0 mg/kg/injection, schedule: Q01DX009 (ip), vehicle: saline with Tween-80 115 % of control | [22] 106 % of control

NNC(=O)Nc1cccnc1
inactive: dose: 75.0 mg/kg/injection, schedule: Q01DX009 (ip), vehicle: saline 106 % of control

Nc1ccc(Nc2ccc(N)cc2)cc1
inactive: [17] 101 % of control | [18] 113 % of control

CCN1C(=S)N(C)C(=O)/C1=C\N(C(C)=O)c1ccccc1
inactive: [22] 103 % of control | [5] 104 % of control | [9] 112 % of control | [6] 104 % of control | [10] 100 % of control | [7] 102 % of control

CC(=O)NC1CCC(O)CC1 (configuration not stated)
inactive: [2] 104 % of control | [3] 94 % of control | [4] 107 % of control

CC(=O)Nc1cccc(-c2ccccc2Cl)c1
inactive: [2] 93 % of control | [3] 96 % of control | [4] 98 % of control

CN(C(=O)Nc1ccccc1F)C1CCCCC1
inactive: dose: 50.0 mg/kg/injection, schedule: Q01DX009 (ip), vehicle: Klucel (hydroxypropylcellulose) (HPC) 101 % of control | [23] 90 % of control | [24] 96 % of control

O=[N+]([O-])c1cc(Br)cc2c1nc(NCCO)c1ccccc12
inactive: [9] 103 % of control | [10] 119 % of control | [11] 101 % of control

C[N+](C)(C)CSSC[N+](C)(C)C
inactive: dose: 12.5 mg/kg/injection, schedule: Q04DX003 (ip), vehicle: saline 92 % of control | dose: 25.0 mg/kg/injection, schedule: Q04DX003 (ip), vehicle: saline 87 % of control | dose: 50.0 mg/kg/injection, schedule: Q04DX003 (ip), vehicle: saline 93 % of control

O=C([S][Ge]([c]1ccccc1)([c]1ccccc1)[c]1ccccc1)c1ccc([N+](=O)[O-])cc1
inactive: [23] 114 % of control | [24] 92 % of control

COc1ccc(-c2cc3c(OC)ccc(OC)c3[nH]2)cc1OC
inactive: dose: 25.0 mg/kg/injection, schedule: Q04DX002 (ip), vehicle: Klucel (hydroxypropylcellulose) (HPC) 96 % of control | dose: 50.0 mg/kg/injection, schedule: Q04DX002 (ip), vehicle: Klucel (hydroxypropylcellulose) (HPC) 96 % of control and 99 % of control | dose: 100.0 mg/kg/injection, schedule: Q04DX002 (ip), vehicle: Klucel (hydroxypropylcellulose) (HPC) 91 % of control | [12] 93 % of control

O=C(Nc1nccs1)Nc1cc([N+](=O)[O-])ccc1F
inactive: [9] 88 % of control | [10] 91 % of control | [11] 88 % of control

O=[N+]([O-])c1ccc(OC(=S)Oc2ccc([N+](=O)[O-])cc2)cc1
inactive: [13] 103 % of control | [14] 105 % of control | [15] 97 % of control | [16] 100 % of control
